Patent US7674486B2, “Synergistic composition for the treatment of diabetes mellitus” (Indus Biotech Pvt. Ltd., priority 2003, dated 2010)

Experiments:
normal Swiss Albino mice = experiment: GTT in normal Swiss Albino mice (BSL); format: in vivo, mouse; details: glucose 2 gm/kg i.p.; oral: Total amino acids 10 mg/kg, Trigonelline 75 mg/kg, Glyburide 10 mg/kg, Composition 30 mg/kg
Excerpt: The animals were fed in the following manner. • 1) Administration of 2 gm/kg of glucose by Inter Peritonially. • 2) Administration of the drug (Orally): [table] […] After centrifugation, the homogenate was characterized by thin layer chromatography and K^+ Ions by Biolyte analyser.

[1] = tested on: pancreas (potassium channel mediated insulin secretion); experiment: K+ ions in pancreas homogenate by Biolyte analyser; format: in vivo, mouse; details: pancreas homogenate at 1 hour; oral: Total amino acids 10 mg/kg, Trigonelline 75 mg/kg, Glyburide 10 mg/kg, Composition 30 mg/kg
Description: EXPERIMENT 6:—The effect of the composition prepared as per Experiment 1 & 2 as well as their individual components separated on column chromatography were studied on normal Swiss Albino mice (male) in the weight range of 25-30 gms for GTT. The animals were fed in the following manner. • 1) Administration of 2 gm/kg of glucose by Inter Peritonially. • 2) Administration of the drug (Orally):
• 3) Measurement of BSL at 0 minutes & 1 hour. • 4) Immediately after blood removal at 1 hour, the animals were sacrificed by tail flicking and the pancreas was removed and homogenized using tris buffer. After centrifugation, the homogenate was characterized by thin layer chromatography and K^+ Ions by Biolyte analyser. Following are the observations:
Decreased K+ ion concentration indicates the repolarisation effect as the ATP dependant IK-ATP

[2] = Comparative hypoglycemic activity of fenugreek seed powder, fenugreek components and the composition; details: in vivo
Excerpt: The comparative results of fenugreek seed powder (whole), and the composition of the instant application are shown below to establish inventiveness of the application.
The activity was restricted to only a couple of components. Also, synergy was observed by a selective combination of three components of the composition. The same is elaborated with the help of experimental data as given below.

[3] = tested on: Female wistar rats, sciatic nerve; experiment: Partial sciatic nerve ligation: motor function test, pain scale; format: in vivo, rat; details: 50 mg/kg, scale 0 nil to 5 highly severe
Description: This experiment is conducted to evaluate the neuropathy effects. • 1. Partial Sciatic Nerve Ligation • 2. Formalin Induced Behavioral And Thermal Hyperalgesia Experiment 1: Partial Sciatic Nerve Ligation Material and Method:— Preparation of Animals:— Animals:—Female wistar rats 175-250 gram (n=6)
(§1) Surgery:—Under ether anesthesia and aseptic conditions the right sciatic nerve was exposed at high thigh level. In sham operated animals the nerve was left intact and the wound was closed with 2 muscle suture and 3-4 skin sutures.
(§2) In experimental animals the sciatic nerve underwent partial injury. The dorsum of the nerve was carefully freed from surrounding connective tissues at a site near the trochanter just distil to the point at which the posterior biceps semitendinosus nerve branches off the common sciatic nerve. Using an irish forceps the nerve was fixed in its place by pinching the epineurium on its dorsal aspect, taking care not to press the nerve against underlying structures. An 4-0 silk suture was inserted into the nerve with ⅜ curved, reverse-cutting mini needle, and tightly ligated so that the dorsal ⅓−½ of the nerve thickness was trapped in the ligature. The wound was then closed as in sham operated rats. In all rats the left leg and sciatic nerve were untouched.
(§3) The animals were divided into following groups:—
(§4) Group 1 Control (vehicle treated) (but nerve not ligated)
(§5) Group 2 Sham treated (vehicle treated)(Surgery done but no ligation of nerve)
(§6) Group 3 Vitamin E acetate (50 mg/kg) (nerve ligated)
(§7) Group 4 Indus test drug (100 mg/kg) (nerve ligated)
(§8) Group 5 Indus test drug (200 mg/kg) (nerve ligated)
• a. Thermal hyperalgesia (TH):—This was assessed using Ugo Basile Hot Plate instrument (at 55±1° C.). Antinociceptive effects were determined according to the latency (in seconds) of limb withdrawal to the noxious thermal simulation (Ugo Basile hot plate, Versace, Italy). […] Motor function test (MFT):—Motor function was monitored by observation of spontaneous gait and hind paw posture. […] The readings were observed on day 0, 2, 15 and 30.

[4] = tested on: Female wistar rats, sciatic nerve; experiment: Partial sciatic nerve ligation: thermal hyperalgesia (hot plate); format: in vivo, rat; details: 50 mg/kg, nerve ligated
Description: This experiment is conducted to evaluate the neuropathy effects. • 1. Partial Sciatic Nerve Ligation • 2.
as §1, §2, §3, §4, §5, §6, §7, §8
• a. Thermal hyperalgesia (TH):—This was assessed using Ugo Basile Hot Plate instrument (at 55±1° C.). Antinociceptive effects were determined according to the latency (in seconds) of limb withdrawal to the noxious thermal simulation (Ugo Basile hot plate, Versace, Italy). Cut off value of planter test was set to 22 s to prevent limb injury. The pain threshold were tested on day 0, 2, 4, 6, 8, 10, 12, 14, 21 and 28. • b. Motor function test (MFT):—Motor function was monitored by observation of spontaneous gait and hind paw posture. Each animal was placed in a plastic box with plexiglass walls and allowed to habituate for at least 5 minutes before the observation period. […] The readings were observed on day 0, 2, 15 and 30.

Male wistar rats, kidney = experiment: Diabetic nephropathy model (Alloxan plus left renal artery clamping); format: in vivo, rat
Description: Male wistar rats of 150-200 gram were injected Alloxan (150 mg/kg i.p.) to induce diabetes. Once the animals show blood sugar above 250 mg/dl, animals are divided in groups as mentioned below and dosing of same is started as per groups. After 7 days of dosing in test drug groups and 3 days dosing in insulin group surgery is performed. In all groups animals were anesthetized and a small midline incision was made to isolate left renal artery and clamped for 30 minutes after which animals were stitched back. This is a kidney ligation technique to induce diabetic nephropathy in experimental animals. In Group 1, complete procedure was same but no treatment is given. The animals were then allowed to recover and dosing was continued as per given in various groups till day 30th after surgery. Creatinine clearance was noted on 0th, 10th, 20th and 30th day. After 30 days animals were sacrificed and kidney was sent for histopathological evaluation. Group 1 Saline (untreated) Group 2 Test drug (low dose) Group 3 Test drug (medium dose) Group 4 Test drug (high dose) Group 5 Standard (insulin)

COc1ccc(Cl)cc1C(=O)NCCc1ccc(S(=O)(=O)NC(=O)NC2CCCCC2)cc1 [Glyburide]
BSL after 1 hour (normal Swiss Albino mice): 251 mg/dL
BSL at 0 hrs (normal Swiss Albino mice): 365 mg/dL
K+ Ions (μ Mol) [1]: 22.5 μ Mol

C[n+]1cccc(C(=O)[O-])c1 [Trigonelline]
BSL after 1 hour (normal Swiss Albino mice): 233 mg/dL
BSL at 0 hrs (normal Swiss Albino mice): 341 mg/dL
Hypoglycemic activity (%) [2]: 31%
K+ Ions (μ Mol) [1]: 21.8 μ Mol

CC(=O)Oc1c(C)c(C)c2c(c1C)CCC(C)(CCC[C@H](C)CCC[C@H](C)CCCC(C)C)O2 (some centres unmarked) [Vitamin E, Vitamin E acetate]
Motor function test, Pain scale ([3]; 0th day): 0
Motor function test, Pain scale ([3]; 2nd day): 2.77
Motor function test, Pain scale ([3]; 15th day): 1.25
Thermal hyperalgesia, latency of limb withdrawal ([4]; 0th day (before ligation)): 9.51 s
Thermal hyperalgesia, latency of limb withdrawal ([4]; 2nd day): 3.24 s
Thermal hyperalgesia, latency of limb withdrawal ([4]; 4th day): 5.9 s
Thermal hyperalgesia, latency of limb withdrawal ([4]; 6th day): 7.12 s
Thermal hyperalgesia, latency of limb withdrawal ([4]; 8th day): 7.95 s
Thermal hyperalgesia, latency of limb withdrawal ([4]; 10th day): 9.81 s
Thermal hyperalgesia, latency of limb withdrawal ([4]; 12th day): 9.88 s
Thermal hyperalgesia, latency of limb withdrawal ([4]; 14th day): 10.04 s

insulin: Standard in nephropathy model
Histopathology of the kidney: cellularity and matrix (Male wistar rats, kidney; insulin group): did not show any increase in cellularity and matrix
Histopathology of the kidney: tubular necrosis, interstitial fibrosis (Male wistar rats, kidney; insulin treated group): very mild
